From US20040048849A1, “Cyclin-dependent kinase (cdk) and glycolene synthase kinase-3 (gsk-3) inhibitors” (priority 2000, published 2004)

Tested on: DU145 (human prostate cancer cells)
Assay: Antiproliferative activity, WST1 colorimetric test, DU145
Type: cell-based
Details: 96 hours treatment, 0 to 25 μM
Method: Characterization of the Antiproliferative Activity:
By way of example, the effect of a treatment on two human cell lines Mia-Paca2 and DU145 by the compounds of Examples 1 to 33 described previously will be studied. The cell lines DU145 (human prostate cancer cells) and Mia-PaCa2 (human pancreas cancer cells) were acquired from the American Tissue Culture Collection (Rockville, Md., USA). The cells placed in 95 μl of Dulbecco's Modified Eagle's medium (Gibco-Brl, Cergy-Pontoise, France) completed with 10% foetal calf serum inactivated by heating (Gibco-Brl, Cergy-Pontoise, France), 100 units/l of penicillin and 100 μg/ml/l of streptomycin (Gibco-Brl, 10378-057, Cergy-Pontoise, France), and 2 mM of glutamine (Gibco-Brl, Cergy-Pontoise, France) were seeded on a 96-well plate on day 0. The cells were treated on day 1 for 96 hours with 5 μl of each of the compounds at concentrations increasing from 0 to 25 μM final concentration. At the end of this period, quantification of cell proliferation is evaluated by a colorimetric test based on the cleavage of the tetrazolium salt WST1 by the mitochondrial dehydrogenases in viable cells leading to the formation of formazan (Boehringer Mannheim, Meylan, France). These tests are carried out in duplicate with 8 determinations per concentration tested. […]

CC[C@H](CO)Nc1nc(NCc2ccccc2)c2ncn(C(C)C)c2n1 [Roscovitine]
antiproliferative activity regarding DU-145 cells: no antiproliferative activity
